Publication PMC6271559, “Synthesis and Evaluation of 2,4-Disubstituted Quinazoline Derivatives with Potent Anti-Angiogenesis Activities” (Molecules, 2014)
Read-outs that look alike come from different tables or passages of the source.

Assays:
[1] = tested on: HUVEC adhesion to collagen; assay: HUVEC adhesion assay on type I collagen; assay type: cell-based, human; settings: adhesion of HUVEC on collagen, 37 °C; for inhibition at 30 µM / inhibition at 15 µM: Homo sapiens, HUVEC
From the text: A perfect angiogenesis inhibitor must be show lower toxicity toward HUVECs, while showing high inhibitive capability towards the proliferation, migration, and differentiation of HUVECs. To assess the inhibitory effects of 2,4-disubstituted quinazoline derivatives, three assays were used: HUVEC adhesion assay, HUVEC migration assay and CAM assay. Firstly, to test the inhibitory effects of quinazoline derivatives on the attachment of endothelial cells to type I collagen, cell adhesion assays were carried out.
Cell adhesion assay was carried out by a reported method with slight modification. Wells of a 96-well plate were coated at room temperature overnight with rat trail tendon collagen type I (2 μg) in PBS in a final volume of 100 μL. The wells were washed three times with PBS ([…]) and then blocked with 0.2% bovine serum albumin (BSA) in PBS ([…]) for 2 h at 37 °C in a cell culture incubator. The wells were then washed three times with PBS ([…]). HUEVCs were detached from the dish, resuspended in DMEM, and added (50 μL, 10^4 cells/mL) to each well followed by the related compounds (50 μL) at various concentrations. The plates were incubated for 1 h or 3 h at 37 °C and then washed three times with PBS (100 μL). The attached cells were fixed and stained with 0.2 % crystal violet in 20% methanol for 10 min, then washed three times with PBS ([…]). The cells were solubilized by 2% SDS and the OD was measured at 570 nm. Attachment was determined by both 1 and 3 h as described above. Each compound was tested in triplicate and each experiment was repeated three times.

[2] = tested on: CNE-2 (human nasopharyngeal cancer) cells; assay: MTT cytotoxicity assay, CNE-2; assay type: cell-based; settings: 48 h, mean of three independent assays
From the text: (§1) In the early 80s, scientists proposed anti-angiogenesis as a potential target in cancer therapy. Much research in the past 30 years has targeted tumor angiogenesis as a means of inhibiting the process of tumor-caused blood vessel formation. Endothelial cells, which come from the inner lining of blood vessels, makes up a fundamental part of new blood vessels as well as pre-existing ones. A complete angiogenesis process includes the proliferation, migration, and differentiation of endothelial cells, so a great deal of angiogenesis inhibitors discovered to date target endothelial cells. We thus employed a cell proliferation assay to evaluate the cytotoxicity of quinazoline derivatives against both normal (HUVEC) and tumor cell lines (CNE-2, PC-3, and SMMC-7721 cell lines) so we can screen some molecules that have cytotoxicity against tumor cells but low cytotoxicity against HUVECs. Meanwhile, an appropriate concentration range of these compounds could be determined to further study their inhibitive effects against the proliferation, migration, and differentiation of HUVECs. The cytotoxic activities of quinazoline derivatives against human tumor cell lines CNE-2 (human nasopharyngeal cancer), PC-3 (human prostatic carcinoma), SMMC-7721 (human liver cancer) and Human Umbilical Vein Endothelial Cells (HUVECs) were determined by using the MTT cytotoxicity assay.
(§2) HUVEC, CNE-2, PC-3, and 7721 cell lines were seeded on 96-well plates at a concentration of 5,000 cells per well and exposed to various concentrations of quinazoline derivatives. After 48 h of treatment at 37 °C in a humidified atmosphere of 5% CO2, 5 mg/mL MTT solution (10 μL) was added to each well and further incubated for 4 h. Each well was then added dimethyl sulfoxide (DMSO, 100 μL), and the optical density (OD) was recorded at 490 nm. All measurements were done in triplicate, and the IC50 values were derived from the mean OD values of the triplicate tests versus drug concentration curves.

[3] = MTT cytotoxicity assay, HUVEC; assay type: cell-based; settings: human, HUVEC (human umbilical vein endothelial cells), mean of three independent assays
From the text: as §1, §2

[4] = tested on: SMMC-7721 (human liver cancer) cells; assay: MTT cytotoxicity assay, SMMC-7721; assay type: cell-based; settings: 48 h, mean of three independent assays
From the text: as §1, §2

[5] = tested on: PC-3 (human prostatic carcinoma) cells; assay: MTT cytotoxicity assay, PC-3; assay type: cell-based; settings: Prostatic carcinoma cell, 48 h, mean of three independent assays
From the text: as §1, §2

[6] = tested on: chick embryo chorioallantoic membrane (CAM); assay: CAM angiogenesis assay; assay type: in vivo; settings: 30 μg/10 μL on filter disc, 48 h
Procedure: CAMs treated with 0.9% NaCl solution (negative control) were surrounded by all antoic vessels as newly-formed capillaries converging radially toward the sponge in a “spoked wheel” pattern (number of vessels 24 ± 3).
The in vivo CAM angiogenesis model as initially described by Folkman and then modified by Maragoudakis was used. Fertilized chicken eggs were used after incubating them for 8 days. A 1 cm × 1 cm window was made in the shell to create a pocket to expose the CAM. A filter disc with 0.9% NaCl solution or 30 μg/10 μL of compounds was then placed upon the CAM from 10 eggs per treatment and 48 h later, the CAMs were fixed with 4% paraformaldehyde and the vessel number from three random fields around the filter disc were pictured using a microscope.

[7] = 1 h, 1 h, 30 μM, read-out: 1 h Inhibition Rate % Dose 30 μM
[8] = 3 h, 3 h, 15 μM, read-out: 3 h Inhibition Rate % Dose 15 μM
[9] = 3 h, 3 h, 30 μM, read-out: 3 h Inhibition Rate % Dose 30 μM
[10] = 1 h, 1 h, 15 μM, read-out: 1 h Inhibition Rate % Dose 15 μM

Row | SMILES | inhibition at 30 µM [1, 7] [%] | inhibition at 15 µM [1, 8] [%] | inhibition at 30 µM [1, 9] [%] | IC50 [2] [µM] | melting point [°C] | IC50 at 48 h [3] [µM] | IC50 [4] [µM] | IC50 [5] [µM] | inhibition at 15 µM [1, 10] [%] | inhibition of angiogenesis in CAM assay [6] | 3 h Inhibition Rate % Dose 15 μM ([1]; 3 h, 15 μM) [%] | 3 h Inhibition Rate % Dose 30 μM ([1]; 3 h, 30 μM) [%]
1 | CN(C)CCCNc1nc(-c2ccccc2NC(=O)CN2CCOCC2)nc2ccccc12 [Compound 10e, N-(2-(4-(3-(Dimethylamino)propylamino)quinazolin-2-yl)phenyl)-2-morpholinoacetamide] | 14.3 ± 0.1 | 7.9 ± 0.3 | 17.6 ± 0.3 | 19.7 ± 0.2 | 179 to 181 | 79.8 ± 0.1 | 22.6 ± 0.2 | 20.5 ± 0.3 | – | – | – | –
2 | CN(C)CCCNc1nc(-c2ccccc2NC(=O)CCCN2CCCC2)nc2ccccc12 [Compound 12b] | 49.3 ± 0.1 | 38.4 ± 0.2 | 60.1 ± 0.2 | 16.4 ± 0.3 | – | 39.4 ± 0.1 | 15.3 ± 0.2 | 18.9 ± 0.4 | 29.8 ± 0.1 | – | – | –
3 | CN(C)CCCNc1nc(-c2ccccc2NC(=O)CCCN2CCCCC2)nc2ccccc12 [Compound 12a, N-(2-(4-(3-(Dimethylamino)propylamino)quinazolin-2-yl)phenyl)-4-(piperidin-1-yl)butanamide] | 57.9 ± 0.3 | 40.6 ± 0.3 | 61.2 ± 0.3 | 17.3 ± 0.3 | 159 to 160 | 41.7 ± 0.3 | 16.5 ± 0.1 | 17.7 ± 0.2 | 33.6 ± 0.2 | – | – | –
4 | CN(C)CCCNc1nc(-c2ccccc2NC(=O)CN2CCCC2)nc2ccccc12 [Compound 10b, N-(2-(4-(3-(dimethylamino)propylamino)quinazolin-2-yl)phenyl)-2-(pyrrolidin-1-yl)acetamide] | 33 ± 0.2 | 27.8 ± 0.2 | 34.8 ± 0.2 | 14.9 ± 0.2 | 174 to 175 | 39.3 ± 0.3 | 17.9 ± 0.4 | 16.7 ± 0.2 | 28.3 ± 0.1 | – | – | –
5 | CCN(CC)CC(=O)Nc1ccccc1-c1nc(NCCCN(C)C)c2ccccc2n1 [Compound 10c, N-(2-(4-(3-(Dimethylamino)propylamino)quinazolin-2-yl)phenyl)-2-(diethylamino)acetamide] | 27.8 ± 0.2 | 16.4 ± 0.4 | 29.5 ± 0.1 | 17.1 ± 0.4 | – | 56.2 ± 0.2 | 19.4 ± 0.1 | 17.6 ± 0.1 | 18.9 ± 0.3 | – | – | –
6 | CCN(CC)CCC(=O)Nc1ccccc1-c1nc(NCCCN(C)C)c2ccccc2n1 [Compound 11c, N-(2-(4-(3-(Dimethylamino)propylamino)quinazolin-2-yl)phenyl)-3-(diethylamino)propanamide] | 38.7 ± 0.2 | 29.4 ± 0.2 | 36.3 ± 0.4 | 16.8 ± 0.4 | 158 to 160 | 66.8 ± 0.3 | 13.8 ± 0.1 | 18.7 ± 0.3 | 29.9 ± 0.2 | – | – | –
7 | CN(C)CCCNc1nc(-c2ccccc2NC(=O)CCCN2CCOCC2)nc2ccccc12 [Compound 12e, N-(2-(4-(3-(Dimethylamino)propylamino)quinazolin-2-yl)phenyl)-4-morpholinobutanamide] | 34.7 ± 0.2 | 17.2 ± 0.4 | 39.4 ± 0.2 | 20.6 ± 0.2 | 152 to 154 | 76.3 ± 0.2 | 20.8 ± 0.3 | 21.9 ± 0.2 | 26.5 ± 0.2 | – | – | –
8 | CN(C)CCCNc1nc(-c2ccccc2NC(=O)CCCN2CCN(C)CC2)nc2ccccc12 [Compound 12d, N-(2-(4-(3-(Dimethylamino)propylamino)quinazolin-2-yl)phenyl)-4-(4-methylpiperazin-1-yl)butanami-de] | 63.7 ± 0.2 | 47.5 ± 0.3 | 63.4 ± 0.3 | 11.4 ± 0.1 | 155 to 157 | 40.2 ± 0.2 | 10.3 ± 0.5 | 10.9 ± 0.2 | 46.8 ± 0.2 | excellent inhibition of angiogenesis | – | –
9 | CN(C)CCCNc1nc(-c2ccccc2NC(=O)CCN2CCCC2)nc2ccccc12 [Compound 11b, N-(2-(4-(3-(Dimethylamino)propylamino)quinazolin-2-yl)phenyl)-3-(pyrrolidin-1-yl)propanamide] | 54.3 ± 0.3 | 35.2 ± 0.3 | 51.7 ± 0.2 | 14.3 ± 0.1 | 163 to 165 | 46.3 ± 0.3 | 15.1 ± 0.2 | 17.4 ± 0.1 | 35.4 ± 0.3 | – | – | –
10 | CN(C)CCCNc1nc(-c2ccccc2NC(=O)CCN2CCCCC2)nc2ccccc12 [Compound 11a, N-(2-(4-(3-(Dimethylamino)propylamino)quinazolin-2-yl)phenyl)-3-(piperidin-1-yl)propanamide] | 49.6 ± 0.5 | 38.2 ± 0.1 | 59.3 ± 0.1 | 14.2 ± 0.1 | 178 to 179 | 57.4 ± 0.5 | 19.9 ± 0.4 | 18.1 ± 0.2 | 37.4 ± 0.3 | – | – | –
11 | CN(C)CCCNc1nc(-c2ccccc2NC(=O)CN2CCN(C)CC2)nc2ccccc12 [Compound 10d, N-(2-(4-(3-(Dimethylamino)propylamino)quinazolin-2-yl)phenyl)-2-(4-methylpiperazin-1-yl)acetamide] | 44.6 ± 0.4 | – | 63.4 | 10.5 ± 0.3 | 174 to 175 | 38.7 ± 0.1 | 10.4 ± 0.1 | 11.3 ± 0.5 | 34.8 ± 0.2 | – | 32.5 ± 0.4 | 47.2 ± 0.1
12 | CN(C)CCCNc1nc(-c2ccccc2NC(=O)CN2CCCCC2)nc2ccccc12 [Compound 10a, N-(2-(4-(3-(Dimethylamino)propylamino)quinazolin-2-yl)phenyl)-2-(piperidin-1-yl)acetamide] | 31.6 ± 0.3 | 29.2 ± 0.2 | 37.6 ± 0.1 | 13.6 ± 0.2 | 180 to 182 | 45.7 ± 0.2 | 18.1 ± 0.2 | 16.8 ± 0.1 | 26.7 ± 0.1 | – | – | –
13 | CN(C)CCCNc1nc(-c2ccccc2NC(=O)CCN2CCOCC2)nc2ccccc12 [Compound 11e, N-(2-(4-(3-(Dimethylamino)propylamino)quinazolin-2-yl)phenyl)-3-morpholinopropanamide] | 32.3 ± 0.2 | 25.6 ± 0.3 | 36.4 ± 0.3 | 20.1 ± 0.2 | 165 to 167 | 84.9 ± 0.3 | 20.9 ± 0.3 | 19.6 ± 0.2 | 27.4 ± 0.3 | – | – | –
